Columns and labels:
[1] = tested on: SK-MEL-2; assay: Growth inhibition of human SK-MEL-2 cells assessed as cell growth at 0.1 uM incubated for 48 hrs by sulforhodamine B assay relative to control; assay type: functional; conditions: SK-MEL-2, 48 h, read-out: Activity
[2] = tested on: HCT-15; assay: Growth inhibition of human HCT15 cells assessed as cell growth at 0.1 uM incubated for 48 hrs by sulforhodamine B assay relative to control; assay type: functional; conditions: HCT-15, 48 h, read-out: Activity
[3] = tested on: U-251; assay: Growth inhibition of human U251 cells assessed as cell growth at 0.01 uM incubated for 48 hrs by sulforhodamine B assay relative to control; assay type: functional; conditions: U-251, 48 h, read-out: Activity
[4] = tested on: MOLT-4; assay: Growth inhibition of human MOLT4 cells assessed as cell growth at 1 uM incubated for 48 hrs by sulforhodamine B assay relative to control; assay type: functional; conditions: MOLT-4, 48 h, read-out: Activity
[5] = tested on: Hs-578T; assay: Growth inhibition of human Hs578T cells assessed as cell growth at 0.1 uM incubated for 48 hrs by sulforhodamine B assay relative to control; assay type: functional; conditions: read-out: Activity
[6] = tested on: UACC-62; assay: Growth inhibition of human UACC62 cells assessed as cell growth at 0.1 uM incubated for 48 hrs by sulforhodamine B assay relative to control; assay type: functional; conditions: UACC-62, 48 h, read-out: Activity
[7] = tested on: T47D; assay: Growth inhibition of human T47D cells assessed as cell growth at 0.01 uM incubated for 48 hrs by sulforhodamine B assay relative to control; assay type: functional; conditions: read-out: Activity
[8] = tested on: IGROV-1; assay: Growth inhibition of human IGROV1 cells incubated for 48 hrs by sulforhodamine B assay; assay type: functional, cell-based; conditions: IGROV-1, 48 h
[9] = tested on: NCI-H322M; assay: Growth inhibition of human NCI-H322M cells incubated for 48 hrs by sulforhodamine B assay; assay type: functional, cell-based
[10] = tested on: CAKI-1; assay: Growth inhibition of human Caki1 cells assessed as cell growth at 0.1 uM incubated for 48 hrs by sulforhodamine B assay relative to control; assay type: functional; conditions: CAKI-1, 48 h, read-out: Activity
[11] = tested on: BT-549; assay: Growth inhibition of human BT549 cells assessed as cell growth at 0.01 uM incubated for 48 hrs by sulforhodamine B assay relative to control; assay type: functional; conditions: BT-549, 48 h, read-out: Activity
[12] = tested on: SW-620; assay: Growth inhibition of human SW620 cells assessed as cell growth at 0.1 uM incubated for 48 hrs by sulforhodamine B assay relative to control; assay type: functional; conditions: SW-620, 48 h, read-out: Activity
[13] = tested on: HL-60(TB); assay: Growth inhibition of human HL-60(TB) cells assessed as cell growth at 0.1 uM incubated for 48 hrs by sulforhodamine B assay relative to control; assay type: functional; conditions: HL-60, 48 h, read-out: Activity
[14] = tested on: SF-295; assay: Growth inhibition of human SF295 cells assessed as cell growth at 100 uM incubated for 48 hrs by sulforhodamine B assay relative to control; assay type: functional; conditions: SF-295, 48 h, read-out: Activity
[15] = tested on: OVCAR-3; assay: Growth inhibition of human OVCAR3 cells assessed as cell growth at 0.01 uM incubated for 48 hrs by sulforhodamine B assay relative to control; assay type: functional; conditions: OVCAR-3, 48 h, read-out: Activity
[16] = tested on: SNB-19; assay: Growth inhibition of human SNB19 cells assessed as cell growth at 0.1 uM incubated for 48 hrs by sulforhodamine B assay relative to control; assay type: functional; conditions: SNB-19, 48 h, read-out: Activity
[17] = tested on: SNB-19; assay: Growth inhibition of human SNB19 cells assessed as cell growth at 100 uM incubated for 48 hrs by sulforhodamine B assay relative to control; assay type: functional; conditions: SNB-19, 48 h, read-out: Activity
[18] = tested on: BT-549; assay: Growth inhibition of human BT549 cells incubated for 48 hrs by sulforhodamine B assay; assay type: functional, cell-based; conditions: BT-549, 48 h
[19] = tested on: SK-MEL-28; assay: Growth inhibition of human SK-MEL-28 cells assessed as cell growth at 1 uM incubated for 48 hrs by sulforhodamine B assay relative to control; assay type: functional; conditions: SK-MEL-28, 48 h, read-out: Activity
[20] = tested on: MDA-MB-468; assay: Growth inhibition of human MDA-MB-468 cells assessed as cell growth at 0.01 uM incubated for 48 hrs by sulforhodamine B assay relative to control; assay type: functional; conditions: MDA-MB-468, 48 h, read-out: Activity
[21] = tested on: M14; assay: Growth inhibition of human M14 cells assessed as cell growth at 0.1 uM incubated for 48 hrs by sulforhodamine B assay relative to control; assay type: functional; conditions: M14, 48 h, read-out: Activity
[22] = tested on: NCI-H522; assay: Growth inhibition of human NCI-H522 cells assessed as cell growth at 1 uM incubated for 48 hrs by sulforhodamine B assay relative to control; assay type: functional; conditions: NCI-H522, 48 h, read-out: Activity
[23] = tested on: ACHN; assay: Growth inhibition of human ACHN cells incubated for 48 hrs by sulforhodamine B assay; assay type: functional, cell-based
[24] = tested on: NCI-H322M; assay: Growth inhibition of human NCI-H322M cells assessed as cell growth at 0.01 uM incubated for 48 hrs by sulforhodamine B assay relative to control; assay type: functional; conditions: read-out: Activity
[25] = tested on: UO-31; assay: Growth inhibition of human UO31 cells assessed as cell growth at 100 uM incubated for 48 hrs by sulforhodamine B assay relative to control; assay type: functional; conditions: UO-31, 48 h, read-out: Activity
[26] = tested on: SK-MEL-5; assay: Growth inhibition of human SK-MEL-5 cells assessed as cell growth at 100 uM incubated for 48 hrs by sulforhodamine B assay relative to control; assay type: functional; conditions: SK-MEL-5, 48 h, read-out: Activity
[27] = tested on: CCRF-CEM; assay: Growth inhibition of human CCRF-CEM cells assessed as cell growth at 100 uM incubated for 48 hrs by sulforhodamine B assay relative to control; assay type: functional; conditions: read-out: Activity
[28] = tested on: KM12; assay: Growth inhibition of human KM12 cells incubated for 48 hrs by sulforhodamine B assay; assay type: functional, cell-based; conditions: KM12, 48 h
[29] = tested on: 786-0; assay: Growth inhibition of human 786-0 cells incubated for 48 hrs by sulforhodamine B assay; assay type: functional, cell-based; conditions: 786-0, 48 h
[30] = tested on: CCRF-CEM; assay: Growth inhibition of human CCRF-CEM cells assessed as cell growth at 0.01 uM incubated for 48 hrs by sulforhodamine B assay relative to control; assay type: functional; conditions: read-out: Activity
[31] = read-out: LC50 (the source's name)
[32] = read-out: pLC50 (the source's name) (converted)

**Q.** `O=C(Nc1cccc(-n2cc(-c3ccncc3)c(-c3cc(O)cc(Cl)c3)n2)c1)Nc1ccc(Cl)c(C(F)(F)F)c1` was tested. Which growth at 0.1 µM [1] did it give?
**A.** 94%

**Q.** What about the growth at 0.1 µM [2] of the same compound?
**A.** 88%

**Q.** And the growth at 0.01 µM [3]?
**A.** 97%

**Q.** What about the growth at 1 µM [4] of the same compound?
**A.** 52%

**Q.** What about the growth at 0.1 µM [5] of the same compound?
**A.** 94%

**Q.** And the growth at 0.1 µM [6]?
**A.** 102%

**Q.** What about the growth at 0.01 µM [7] of the same compound?
**A.** 91%

**Q.** What about the GI50 ([8]; read-out: GI50) of the same compound?
**A.** 3.81 µM

**Q.** And the CC50 [8, 31]?
**A.** > 100 µM

**Q.** And the TGI ([8]; read-out: TGI)?
**A.** 12.6 µM

**Q.** And the GI50 ([8]; read-out: pGI50 (converted))?
**A.** 3.8 µM

**Q.** What about the CC50 [8, 32] of the same compound?
**A.** > 100 µM

**Q.** What about the TGI ([8]; read-out: pTGI (converted)) of the same compound?
**A.** 12.6 µM

**Q.** What about the GI50 ([9]; read-out: GI50) of the same compound?
**A.** 3.15 µM

**Q.** And the CC50 [9, 31]?
**A.** 95.5 µM

**Q.** What about the TGI ([9]; read-out: TGI) of the same compound?
**A.** 13 µM

**Q.** And the GI50 ([9]; read-out: pGI50 (converted))?
**A.** 3.16 µM

**Q.** What about the CC50 [9, 32] of the same compound?
**A.** 95.5 µM

**Q.** And the TGI ([9]; read-out: pTGI (converted))?
**A.** 12.9 µM

**Q.** And the growth at 0.1 µM [10]?
**A.** 103%

**Q.** And the growth at 0.01 µM [11]?
**A.** 102%

**Q.** And the growth at 0.1 µM [12]?
**A.** 98%

**Q.** And the growth at 0.1 µM [13]?
**A.** 89%

**Q.** And the growth at 100 µM [14]?
**A.** -80%

**Q.** What about the growth at 0.01 µM [15] of the same compound?
**A.** 101%

**Q.** And the growth at 0.1 µM [16]?
**A.** 95%

**Q.** What about the growth at 100 µM [17] of the same compound?
**A.** -33%

**Q.** And the GI50 ([18]; read-out: GI50)?
**A.** 2.25 µM

**Q.** And the CC50 [18, 31]?
**A.** 23.7 µM

**Q.** What about the TGI ([18]; read-out: TGI) of the same compound?
**A.** 51.5 µM

**Q.** And the GI50 ([18]; read-out: pGI50 (converted))?
**A.** 2.82 µM

**Q.** And the CC50 [18, 32]?
**A.** 23.4 µM

**Q.** What about the TGI ([18]; read-out: pTGI (converted)) of the same compound?
**A.** 6.17 µM

**Q.** What about the growth at 1 µM [19] of the same compound?
**A.** 81%

**Q.** What about the growth at 0.01 µM [20] of the same compound?
**A.** 93%

**Q.** What about the growth at 0.1 µM [21] of the same compound?
**A.** 91%

**Q.** What about the growth at 1 µM [22] of the same compound?
**A.** 51%

**Q.** What about the GI50 ([23]; read-out: GI50) of the same compound?
**A.** 3.1 µM

**Q.** And the CC50 [23, 31]?
**A.** > 100 µM

**Q.** What about the TGI ([23]; read-out: TGI) of the same compound?
**A.** 15.3 µM

**Q.** What about the GI50 ([23]; read-out: pGI50 (converted)) of the same compound?
**A.** 3.09 µM

**Q.** What about the CC50 [23, 32] of the same compound?
**A.** > 100 µM

**Q.** What about the TGI ([23]; read-out: pTGI (converted)) of the same compound?
**A.** 15.1 µM

**Q.** What about the growth at 0.01 µM [24] of the same compound?
**A.** 107%

**Q.** What about the growth at 100 µM [25] of the same compound?
**A.** -73%

**Q.** And the growth at 100 µM [26]?
**A.** -97%

**Q.** And the growth at 100 µM [27]?
**A.** -3%

**Q.** And the GI50 ([28]; read-out: GI50)?
**A.** 2.5 µM

**Q.** What about the CC50 [28, 31] of the same compound?
**A.** 47.2 µM

**Q.** And the TGI ([28]; read-out: TGI)?
**A.** 90.6 µM

**Q.** And the GI50 ([28]; read-out: pGI50 (converted))?
**A.** 2.57 µM

**Q.** And the CC50 [28, 32]?
**A.** 46.8 µM

**Q.** What about the TGI ([28]; read-out: pTGI (converted)) of the same compound?
**A.** 9.77 µM

**Q.** And the GI50 ([29]; read-out: GI50)?
**A.** 1.53 µM

**Q.** What about the CC50 [29, 31] of the same compound?
**A.** 5.2 µM

**Q.** And the TGI ([29]; read-out: TGI)?
**A.** 44.5 µM

**Q.** And the GI50 ([29]; read-out: pGI50 (converted))?
**A.** 1.82 µM

**Q.** What about the CC50 [29, 32] of the same compound?
**A.** 89.1 µM

**Q.** What about the TGI ([29]; read-out: pTGI (converted)) of the same compound?
**A.** 4.47 µM

**Q.** And the growth at 0.01 µM [30]?
**A.** 97%

Reference: ChEMBL document CHEMBL4308841, “Synthesis, in vitro antiproliferative activity, and kinase inhibitory effects of pyrazole-containing diarylureas and diarylamides” (Eur J Med Chem, 2018)
